Measurements taken from US20260158139A1, “CARD9 VARIANT POLYPEPTIDE AND ANTIBODIES DIRECTED THERETO” (The Broad Institute, Inc., priority 2023, published 2026).

Biological target: T1, PKCδ (Mus musculus, UniProt P28867)
T1 construct: endogenous in cells; host or cells: mouse bone-marrow-derived dendritic cells (BMDCs) from WT mice
Assay: CARD9 immunoprecipitation and western blot for pS104-CARD9 in BMDCs stimulated with HKCA
Format: cell-based
Details: 10 uM, added 1 h before stimulation; BMDCs from WT mice stimulated with HKCA (MOI 1:10)
Method: FIGS. 3A-3H provide graphs and pictures showing that CARD9 R101 functions as a signaling switch activated by S104 phosphorylation. FIG. 3A, BMDCs expressing Cas9 were transduced with guides for the corresponding genes on day 2 and selected with puromycin. On day 9 cells were stimulated with 100 ug/ml WGP O/N and IL-6 levels in supernatant were measured with ELISA. FIG. 3B, BMDCs expressing Cas9 were transduced with guides for the corresponding genes on day 2 and selected with puromycin. On day 9 cells were stimulated with HKCA (MOI 1:10), HKTR (1:10) or LPS (10 ng/ml) for 30 min. p65 nuclear translocation was measured using fluorescence imaging. The bars in the graph are shown in groups of 6 (from left to right, EGFP, EGFP, PAK2, PAK2, PKCd, PKCd) for each different condition (i.e., untreated, HKCA, HKTR, LPS). FIG. 3C, CARD9 FL, CARD9 R101C or CARD9 S104N were overexpressed in HEK 293T cells. […] Samples were analyzed by WB with the indicated antibodies. […] Samples were analyzed by WB with the indicated antibodies. FIG. 3F, Normalized fluorescence polarization representing filament formation between different CARD9 2-152 variants and Bcl10, average of quadruplicates. […] FIG. 3H, Expression of CARD9 in the lysates from panel g determined by western blot (WB) with the indicated antibodies. […]

T1 sequence (P28867 whole entry): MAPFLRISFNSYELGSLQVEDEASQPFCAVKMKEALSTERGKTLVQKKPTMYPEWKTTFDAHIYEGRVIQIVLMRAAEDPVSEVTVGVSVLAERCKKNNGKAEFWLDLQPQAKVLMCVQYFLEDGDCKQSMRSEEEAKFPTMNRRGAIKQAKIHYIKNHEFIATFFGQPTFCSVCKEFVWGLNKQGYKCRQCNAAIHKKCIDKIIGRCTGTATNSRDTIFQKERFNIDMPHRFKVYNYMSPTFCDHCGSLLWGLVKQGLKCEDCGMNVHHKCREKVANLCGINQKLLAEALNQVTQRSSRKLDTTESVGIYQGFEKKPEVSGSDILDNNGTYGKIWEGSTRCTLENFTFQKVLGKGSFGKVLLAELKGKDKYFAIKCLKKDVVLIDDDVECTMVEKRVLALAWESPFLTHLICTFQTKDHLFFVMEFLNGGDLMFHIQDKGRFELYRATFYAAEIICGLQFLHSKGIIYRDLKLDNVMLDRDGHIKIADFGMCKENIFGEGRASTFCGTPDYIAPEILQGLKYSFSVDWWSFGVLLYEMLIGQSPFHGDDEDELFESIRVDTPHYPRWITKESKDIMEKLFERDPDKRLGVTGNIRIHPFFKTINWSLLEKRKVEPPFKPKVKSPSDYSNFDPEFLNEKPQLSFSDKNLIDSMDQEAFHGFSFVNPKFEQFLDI

Structure (SMILES): CN1CCN(c2nc(C3=C(c4c[nH]c5ccccc45)C(=O)NC3=O)c3ccccc3n2)CC1 [Sotrastaurin]
- CARD9 S104 phosphorylation: inhibition of CARD9 S104 phosphorylation
